{
  "source": "paper PMC11325787",
  "about": "“A fluorescence polarization assay for high-throughput screening of inhibitors against HIV-1 Nef-mediated MHC-I downregulation” (The Journal of Biological Chemistry, 2024)",
  "key": {"MBP-Nef-μ1^CTD [1]": {"molecular_target": "T1, MBP-Nef-μ1^CTD (UniProt P03406+P35585)", "T1 construct": "fusing HIV-1 Nef (59–206, NL4.3) to the C terminal domain of μ1 subunit of AP1; to the C terminal domain of μ1 subunit of AP1 via a flexible linker of 20 amino acids; 6xHis (C); made in house; host or cells: Escherichia coli", "T1 sequence (P03406 59-206 limits assumed)": "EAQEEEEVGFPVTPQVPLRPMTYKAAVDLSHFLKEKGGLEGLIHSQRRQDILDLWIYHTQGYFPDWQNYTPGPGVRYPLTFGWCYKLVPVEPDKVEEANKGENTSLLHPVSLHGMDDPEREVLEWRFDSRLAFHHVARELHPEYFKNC", "T1 sequence (P35585 168-421 limits assumed)": "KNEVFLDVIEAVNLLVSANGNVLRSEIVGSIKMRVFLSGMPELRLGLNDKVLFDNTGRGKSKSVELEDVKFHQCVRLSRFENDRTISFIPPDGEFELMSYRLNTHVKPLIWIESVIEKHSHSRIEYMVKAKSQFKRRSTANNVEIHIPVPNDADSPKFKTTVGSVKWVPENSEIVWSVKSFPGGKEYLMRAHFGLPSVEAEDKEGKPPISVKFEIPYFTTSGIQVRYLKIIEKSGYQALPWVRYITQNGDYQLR", "type": "binding, HIV-1 (Nef 59–206, NL4.3)", "details": "300 μM, result in words; for effect on FP signal: 30 μM MBP-Nef-μ1^CTD, 50 nM TMR-enhanced-MHC-ICD, room temperature; for effect on FP signal / noise in the assay: final dimethylsulfoxide 3%; for background of the assay: not shown"}, "[2]": {"assay": "Stability of the probes on the bench", "details": "room temperature"}, "MBP-Nef-μ1^CTD [3]": {"molecular_target": "T1, MBP-Nef-μ1^CTD", "assay": "Fluorescence polarization binding assay of TMR-labelled MHC-ICD probes with the Nef-μ1^CTD fusion", "set-up": "species or system HIV-1 (Nef 59–206, NL4.3)", "details": "50 nM probe"}, "MBP-Nef-μ1^CTD [4]": {"molecular_target": "T1, MBP-Nef-μ1^CTD", "assay": "Competition of TMR-enhanced-MHC-ICD by unlabeled enhanced-MHC-ICD peptide (FP)", "type": "binding, HIV-1 (Nef 59–206, NL4.3)", "details": "room temperature, result in words", "from_the_text": "We next investigated whether our assay is sensitive to competitive inhibition. Here, an unlabeled, modified MHC-ICD peptide was used as the competitor. The sequence of this competitor peptide is different from the authentic sequence of MHC-ICD in the following ways. […] Second, to improve the solubility of the competitor peptide, we introduced three additional mutations in the MHC-ICD sequence: Q322E, G325S, and S326D. According to the previous structure, these mutations should not interfere with Nef-μ1^CTD binding but should increase the peptide’s hydrophilicity.\nThe Nef-μ1^CTD fusion was constructed by fusing HIV-1 Nef (59–206, NL4.3) to the C terminal domain of μ1 subunit of AP1 via a flexible linker of 20 amino acids. Gene encoding the above Nef-μ1^CTD fusion was cloned into a modified pMAT9 expression vector with a 6xHis tag introduced at the C-terminus of the fusion protein. Escherichia coli cells transformed with the plasmid were grown at 37 °C till A600 reached 0.8. Protein expression was then induced with 0.1 mM IPTG and continued at 16 °C overnight. Cells were then lysed using sonication. The protein of interest was purified sequentially through a Ni-NTA affinity column, a MBP affinity column, a HiTrap Q anion exchange column, and finally a Superdex 200 size exclusion column.\nFor competition using unlabeled enhanced-MHC-ICD peptide, a stock solution of 1.2 mM unlabeled enhanced-MHC-ICD peptide was first prepared. The stock solution was then serial-diluted (2-fold each) 10 times. […] The plate was incubated at room temperature and read at different time points. FP values were recorded. All experiments were done in triplicates."}, "[5]": {"assay": "Precipitation/solubility of competitor peptide observed during experiments", "type": "physicochemical", "details": "seen during experiments; stock solution 1.2 mM; result in words"}, "TMR-MHC-ICD": {"molecular_target": "TMR-MHC-ICD", "assay": "fluorescence polarisation"}},
  "note": "Peptide text beside a SMILES is read from it. * marks the point of attachment. X1 = CN(C)c1ccc2c(-c3ccc(C(=O)*)cc3C(=O)[O-])c3ccc(=[N+](C)C)cc-3oc2c1; 5TAMRA = CN(C)c1ccc2c(c1)Oc1cc(N(C)C)ccc1C21OC(=O)c2cc(C(=O)*)ccc21",
  "data": [
    {"molecule": "OC[C@H]1O[C@H](O[C@H]2[C@H](O)[C@@H](O)C(O)O[C@@H]2CO)[C@H](O)[C@@H](O)[C@@H]1O", "note": "(mixture of isomers) [maltose]", "values": [
      {"measurement": "effect on FP signal", "setting": "MBP-Nef-μ1^CTD [1]", "result": "did not lead to any meaningful decrease of the FP signal"},
      {"measurement": "noise in the assay", "setting": "MBP-Nef-μ1^CTD [1]", "result": "did not cause noise"},
      {"measurement": "background of the assay", "setting": "MBP-Nef-μ1^CTD [1]", "result": "no fluctuation at all"}
    ]},
    {"molecule": "C[C@H](NC(=O)[C@H](C)NC(=O)[C@H](CCC(N)=O)NC(=O)[C@H](CO)NC(=O)[C@H](Cc1ccc(O)cc1)NC(=O)[C@H](CO)NC(=O)c1ccc(-c2c3ccc(=[N+](C)C)cc-3oc3cc(N(C)C)ccc23)c(C(=O)[O-])c1)C(=O)NCC(=O)N[C@@H](CO)C(=O)N[C@@H](CC(=O)O)C(=O)N[C@@H](CO)C(=O)N[C@@H](C)C(=O)N[C@@H](CCC(N)=O)C(=O)O", "note": "[TMR-MHC-ICD] (X1-SYSQAAGSDSAQ-OH; N-terminus and C-terminus assumed)", "values": [
      {"measurement": "stability of probe", "setting": "[2]", "result": "at least 20 h"},
      {"measurement": "Kd", "setting": "MBP-Nef-μ1^CTD [3]; FP, MBP-Nef-μ1^CTD varied, 15 μl, 384-well, 50 mM Tris, 150 mM NaCl, 0.5 mM DTT, 0.01% Triton X-100, pH 8.0, 1∼2 h, room temperature, ex 535 nm, em 595 nm, triplicates, TMR-mutant-MHC-ICD signal subtracted, one-site binding fit, read-out: KD (dissociation constant)", "result": 44.1, "unit": "µM"},
      {"measurement": "signal window (difference between probe and TMR-mutant-MHC-ICD curves)", "setting": "MBP-Nef-μ1^CTD [3]; low Nef-μ1^CTD concentrations, result in words", "result": "very modest"}
    ]},
    {"molecule": "CC(C)C[C@H](NC(=O)[C@H](CCC(N)=O)NC(=O)[C@H](CO)NC(=O)[C@H](Cc1ccc(O)cc1)NC(=O)[C@H](CO)NC(=O)c1ccc2c(c1)C(=O)OC21c2ccc(N(C)C)cc2Oc2cc(N(C)C)ccc21)C(=O)N[C@@H](C)C(=O)NCC(=O)N[C@@H](CO)C(=O)N[C@@H](CC(=O)O)C(=O)N[C@@H](CO)C(=O)N[C@@H](C)C(=O)N[C@@H](CCC(N)=O)C(=O)O", "note": "[TMR-enhanced-MHC-ICD] (5TAMRA-SYSQLAGSDSAQ-OH)", "values": [
      {"measurement": "stability of probe", "setting": "[2]", "result": "at least 20 h"}
    ]},
    {"molecule": "O=C(N[C@H](CO)[C@H](O)c1ccc([N+](=O)[O-])cc1)C(Cl)Cl", "note": "[chloramphenicol]", "values": [
      {"measurement": "effect on FP signal", "setting": "MBP-Nef-μ1^CTD [1]", "result": "did not lead to any meaningful decrease of the FP signal"},
      {"measurement": "noise in the assay", "setting": "MBP-Nef-μ1^CTD [1]", "result": "did not cause noise"},
      {"measurement": "background of the assay", "setting": "MBP-Nef-μ1^CTD [1]", "result": "no fluctuation at all"}
    ]},
    {"molecule": "CC(C)C[C@H](NC(=O)[C@H](CCC(=O)O)NC(=O)[C@H](CO)NC(=O)[C@H](Cc1ccc(O)cc1)NC(=O)[C@@H](N)CO)C(=O)N[C@@H](C)C(=O)N[C@@H](CO)C(=O)N[C@@H](CC(=O)O)C(=O)N[C@@H](CC(=O)O)C(=O)N[C@@H](CO)C(=O)N[C@@H](C)C(=O)N[C@@H](CCC(N)=O)C(=O)O", "note": "[unlabeled enhanced MHC-ICD peptide] (H-SYSELASDDSAQ-OH; N-terminus and C-terminus assumed)", "values": [
      {"measurement": "effect on FP signal (displacement of TMR-enhanced-MHC-ICD probe)", "setting": "MBP-Nef-μ1^CTD [4]; 30 μM MBP-Nef-μ1^CTD, 50 nM TMR-enhanced-MHC-ICD, varied competitor, triplicates", "result": "dose-dependent decrease of the FP signal"},
      {"measurement": "competition of the fluorescence-labeled probe after 1-h incubation", "setting": "MBP-Nef-μ1^CTD [4]; 1-h incubation, three independent samples, one-way ANOVA p < 0.0001", "result": "successfully observed"},
      {"measurement": "competition signals after 4 h", "setting": "MBP-Nef-μ1^CTD [4]; 4 h, three independent samples, longer incubation led to a gradual decrease of the FP signal (not shown)", "result": "remained stable"},
      {"measurement": "precipitation", "setting": "[5]", "result": "sometimes forms precipitates"}
    ]},
    {"molecule": "MBP-Nef-μ1^CTD fusion protein (from UniProt P03406;P35585)", "values": [
      {"measurement": "Kd", "setting": "TMR-MHC-ICD", "result": 44.1, "unit": "µM"}
    ]},
    {"molecule": "TMR-SDSQAAGSRSAQ [TMR-mutant-MHC-ICD]", "values": [
      {"measurement": "stability of probe", "setting": "[2]", "result": "at least 20 h"},
      {"measurement": "FP signal at Nef-μ1^CTD concentration beyond 50 μM", "setting": "MBP-Nef-μ1^CTD [3]; Nef-μ1^CTD >50 μM, noise believed to be light scattering of MBP-Nef-μ1^CTD, result in words", "result": "increased modestly"}
    ]}
  ]
}
